Consider nine compounds from ChEMBL document CHEMBL5131399, “Broadening antifungal spectrum and improving metabolic stablity based on a scaffold strategy: Design, synthesis, and evaluation of novel 4-phenyl-4,5-dihydrooxazole derivatives as potent fungistatic and fungicidal reagents” (Eur J Med Chem, 2022).

In brackets after ≈: the same amount, converted by molar mass.

One assay relates to Candida parapsilosis. The experiment in a line: Antifungal activity against Candida parapsilosis GIM2.190 assessed as fungal growth inhibition by NCCLS protocol based method. As to conditions: Lodderomyces parapsilosis. It counts as functional.
Regarding `FC(F)(F)c1ccc(C2(Cn3ccnc3)COC(c3ccc(-c4ccccc4)s3)=N2)cc1` (configuration not stated), the MIC was above 64 µg/mL.
The same measure, in the same setting: to `Fc1ccc(-c2ccc(C3=NC(Cn4ccnc4)(c4ccc(F)cc4)CO3)s2)cc1` (configuration not stated) belongs above 64 µg/mL.
Consider `CC(C)c1ccccc1-c1ccc(C2=NC(Cn3ccnc3)(c3ccc(F)cc3)CO2)s1` (configuration not stated), for which the MIC was above 64 µg/mL.
Regarding `Fc1ccc(C2(Cn3ccnc3)COC(c3ccc(-c4ccc(C(F)(F)F)cc4)s3)=N2)cc1` (configuration not stated), the MIC was above 64 µg/mL.
Take `Fc1ccc(C2(Cn3ccnc3)COC(c3ccc(-c4ccc(Cl)cc4)s3)=N2)cc1` (configuration not stated): the MIC was above 64 µg/mL.
Still for that read-out and setting: for `COc1cccc(-c2ccc(C3=NC(Cn4ccnc4)(c4ccc(F)cc4)CO3)s2)c1` (configuration not stated) the value was above 64 µg/mL; for `Fc1ccc(C2(Cn3ccnc3)COC(c3ccc(-c4ccccc4Cl)s3)=N2)cc1` (configuration not stated), above 64 µg/mL.
On the same count and under the same terms, for `Cc1cccc(-c2ccc(C3=NC(Cn4ccnc4)(c4ccc(F)cc4)CO3)s2)c1` (configuration not stated) the value was 16 µg/mL (≈ 38.3 µM); for `N#Cc1cccc(-c2ccc(C3=NC(Cn4ccnc4)(c4ccc(F)cc4)CO3)s2)c1` (configuration not stated), above 64 µg/mL.

The subject of another assay is Pichia kudriavzevii. Kind of assay: Antifungal activity against Candida krusei GIM2.1 assessed as fungal growth inhibition by NCCLS protocol based method.
Settings: not given
Type of assay: functional.
For the compound `FC(F)(F)c1ccc(C2(Cn3ccnc3)COC(c3ccc(-c4ccccc4)s3)=N2)cc1` (configuration not stated), the MIC is above 64 µg/mL.
The same measure, in the same setting: to `Fc1ccc(-c2ccc(C3=NC(Cn4ccnc4)(c4ccc(F)cc4)CO3)s2)cc1` (configuration not stated) belongs 16 µg/mL (≈ 38 µM); to `CC(C)c1ccccc1-c1ccc(C2=NC(Cn3ccnc3)(c3ccc(F)cc3)CO2)s1` (configuration not stated), above 64 µg/mL; to `Fc1ccc(C2(Cn3ccnc3)COC(c3ccc(-c4ccc(C(F)(F)F)cc4)s3)=N2)cc1` (configuration not stated), above 64 µg/mL.
Still for that read-out and setting: to `Fc1ccc(C2(Cn3ccnc3)COC(c3ccc(-c4ccc(Cl)cc4)s3)=N2)cc1` (configuration not stated) belongs 8 µg/mL (≈ 18.3 µM).
Still for that read-out and setting: for `COc1cccc(-c2ccc(C3=NC(Cn4ccnc4)(c4ccc(F)cc4)CO3)s2)c1` (configuration not stated) the value was above 64 µg/mL; for `Fc1ccc(C2(Cn3ccnc3)COC(c3ccc(-c4ccccc4Cl)s3)=N2)cc1` (configuration not stated), above 64 µg/mL; for `Cc1cccc(-c2ccc(C3=NC(Cn4ccnc4)(c4ccc(F)cc4)CO3)s2)c1` (configuration not stated), above 64 µg/mL.
As to `N#Cc1cccc(-c2ccc(C3=NC(Cn4ccnc4)(c4ccc(F)cc4)CO3)s2)c1` (configuration not stated), the MIC was above 64 µg/mL.

The next assay concerns Candida albicans. The experiment in a line: Antifungal activity against Candida albicans CPCC400616 assessed as fungal growth inhibition by NCCLS protocol based method.
Settings: not given
It counts as functional.
With `FC(F)(F)c1ccc(C2(Cn3ccnc3)COC(c3ccc(-c4ccccc4)s3)=N2)cc1` (configuration not stated), the MIC came to 0.5 µg/mL (≈ 1.1 µM).
Still for that read-out and setting: to `Fc1ccc(-c2ccc(C3=NC(Cn4ccnc4)(c4ccc(F)cc4)CO3)s2)cc1` (configuration not stated) belongs 1 µg/mL (≈ 2.37 µM).
With `CC(C)c1ccccc1-c1ccc(C2=NC(Cn3ccnc3)(c3ccc(F)cc3)CO2)s1` (configuration not stated), the MIC is above 64 µg/mL.
Same read-out and setting: for `Fc1ccc(C2(Cn3ccnc3)COC(c3ccc(-c4ccc(C(F)(F)F)cc4)s3)=N2)cc1` (configuration not stated) the value was above 64 µg/mL; for `Fc1ccc(C2(Cn3ccnc3)COC(c3ccc(-c4ccc(Cl)cc4)s3)=N2)cc1` (configuration not stated), 2 µg/mL (≈ 4.57 µM); for `COc1cccc(-c2ccc(C3=NC(Cn4ccnc4)(c4ccc(F)cc4)CO3)s2)c1` (configuration not stated), above 64 µg/mL.
In the case of `Fc1ccc(C2(Cn3ccnc3)COC(c3ccc(-c4ccccc4Cl)s3)=N2)cc1` (configuration not stated), the MIC turned out to be 0.25 µg/mL (≈ 0.571 µM).
As to `Cc1cccc(-c2ccc(C3=NC(Cn4ccnc4)(c4ccc(F)cc4)CO3)s2)c1` (configuration not stated), the MIC was determined as 0.25 µg/mL (≈ 0.599 µM).
For `N#Cc1cccc(-c2ccc(C3=NC(Cn4ccnc4)(c4ccc(F)cc4)CO3)s2)c1` (configuration not stated), the MIC came out at 0.5 µg/mL (≈ 1.17 µM).

Another assay deals with Candida albicans. The experiment in a line: Antifungal activity against Candida albicans ATCC SC5314 assessed as fungal growth inhibition by NCCLS protocol based method.
Settings: not given
It counts as functional.
Regarding `FC(F)(F)c1ccc(C2(Cn3ccnc3)COC(c3ccc(-c4ccccc4)s3)=N2)cc1` (configuration not stated), the minimal inhibitory concentration (MIC) is 0.125 µg/mL (≈ 0.276 µM).
The same measure, in the same setting: to `Fc1ccc(-c2ccc(C3=NC(Cn4ccnc4)(c4ccc(F)cc4)CO3)s2)cc1` (configuration not stated) belongs 2 µg/mL (≈ 4.75 µM); to `CC(C)c1ccccc1-c1ccc(C2=NC(Cn3ccnc3)(c3ccc(F)cc3)CO2)s1` (configuration not stated), above 64 µg/mL.
In the case of `Fc1ccc(C2(Cn3ccnc3)COC(c3ccc(-c4ccc(C(F)(F)F)cc4)s3)=N2)cc1` (configuration not stated), the MIC is above 64 µg/mL.
For the compound `Fc1ccc(C2(Cn3ccnc3)COC(c3ccc(-c4ccc(Cl)cc4)s3)=N2)cc1` (configuration not stated), the MIC is 8 µg/mL (≈ 18.3 µM).
Still for that read-out and setting: to `COc1cccc(-c2ccc(C3=NC(Cn4ccnc4)(c4ccc(F)cc4)CO3)s2)c1` (configuration not stated) belongs above 64 µg/mL.
Same read-out and setting: to `Fc1ccc(C2(Cn3ccnc3)COC(c3ccc(-c4ccccc4Cl)s3)=N2)cc1` (configuration not stated) belongs 0.5 µg/mL (≈ 1.14 µM); to `Cc1cccc(-c2ccc(C3=NC(Cn4ccnc4)(c4ccc(F)cc4)CO3)s2)c1` (configuration not stated), 0.5 µg/mL (≈ 1.2 µM).
The same measure, in the same setting: for `N#Cc1cccc(-c2ccc(C3=NC(Cn4ccnc4)(c4ccc(F)cc4)CO3)s2)c1` (configuration not stated) the value was 0.5 µg/mL (≈ 1.17 µM).

In a further assay the test system is Cryptococcus neoformans. Kind of assay: Antifungal activity against Cryptococcus neoformans CGMCC 2.3161 assessed as fungal growth inhibition by NCCLS protocol based method. It counts as functional.
Settings: not given
Take `FC(F)(F)c1ccc(C2(Cn3ccnc3)COC(c3ccc(-c4ccccc4)s3)=N2)cc1` (configuration not stated): the MIC is above 64 µg/mL.
Same read-out and setting: to `Fc1ccc(-c2ccc(C3=NC(Cn4ccnc4)(c4ccc(F)cc4)CO3)s2)cc1` (configuration not stated) belongs 8 µg/mL (≈ 19 µM); to `CC(C)c1ccccc1-c1ccc(C2=NC(Cn3ccnc3)(c3ccc(F)cc3)CO2)s1` (configuration not stated), above 64 µg/mL.
Still for that read-out and setting: to `Fc1ccc(C2(Cn3ccnc3)COC(c3ccc(-c4ccc(C(F)(F)F)cc4)s3)=N2)cc1` (configuration not stated) belongs above 64 µg/mL.
In the case of `Fc1ccc(C2(Cn3ccnc3)COC(c3ccc(-c4ccc(Cl)cc4)s3)=N2)cc1` (configuration not stated), the MIC is above 64 µg/mL.
Same read-out and setting: for `COc1cccc(-c2ccc(C3=NC(Cn4ccnc4)(c4ccc(F)cc4)CO3)s2)c1` (configuration not stated) the value was above 64 µg/mL.
On the same count and under the same terms, to `Fc1ccc(C2(Cn3ccnc3)COC(c3ccc(-c4ccccc4Cl)s3)=N2)cc1` (configuration not stated) belongs above 64 µg/mL; to `Cc1cccc(-c2ccc(C3=NC(Cn4ccnc4)(c4ccc(F)cc4)CO3)s2)c1` (configuration not stated), 16 µg/mL (≈ 38.3 µM); to `N#Cc1cccc(-c2ccc(C3=NC(Cn4ccnc4)(c4ccc(F)cc4)CO3)s2)c1` (configuration not stated), 2 µg/mL (≈ 4.67 µM).

A further assay concerns Candida tropicalis. The experiment in a line: Antifungal activity against Candida tropicalis CGMCC 2.3739 assessed as fungal growth inhibition by NCCLS protocol based method. It counts as functional.
Settings: not given
In the case of `FC(F)(F)c1ccc(C2(Cn3ccnc3)COC(c3ccc(-c4ccccc4)s3)=N2)cc1` (configuration not stated), the MIC is above 64 µg/mL.
Still for that read-out and setting: for `Fc1ccc(-c2ccc(C3=NC(Cn4ccnc4)(c4ccc(F)cc4)CO3)s2)cc1` (configuration not stated) the value was 0.5 µg/mL (≈ 1.19 µM); for `CC(C)c1ccccc1-c1ccc(C2=NC(Cn3ccnc3)(c3ccc(F)cc3)CO2)s1` (configuration not stated), above 64 µg/mL.
On the same count and under the same terms, to `Fc1ccc(C2(Cn3ccnc3)COC(c3ccc(-c4ccc(C(F)(F)F)cc4)s3)=N2)cc1` (configuration not stated) belongs above 64 µg/mL.
The same measure, in the same setting: to `Fc1ccc(C2(Cn3ccnc3)COC(c3ccc(-c4ccc(Cl)cc4)s3)=N2)cc1` (configuration not stated) belongs 4 µg/mL (≈ 9.13 µM).
As for `COc1cccc(-c2ccc(C3=NC(Cn4ccnc4)(c4ccc(F)cc4)CO3)s2)c1` (configuration not stated), the MIC was above 64 µg/mL.
On the same count and under the same terms, for `Fc1ccc(C2(Cn3ccnc3)COC(c3ccc(-c4ccccc4Cl)s3)=N2)cc1` (configuration not stated) the value was above 64 µg/mL; for `Cc1cccc(-c2ccc(C3=NC(Cn4ccnc4)(c4ccc(F)cc4)CO3)s2)c1` (configuration not stated), 4 µg/mL (≈ 9.58 µM); for `N#Cc1cccc(-c2ccc(C3=NC(Cn4ccnc4)(c4ccc(F)cc4)CO3)s2)c1` (configuration not stated), 1 µg/mL (≈ 2.33 µM).

Another assay has as its system Aspergillus fumigatus. Kind of assay: Antifungal activity against Aspergillus fumigatus CGMCC3.7795 assessed as fungal growth inhibition by NCCLS protocol based method.
Settings: not given
It counts as functional.
Consider `FC(F)(F)c1ccc(C2(Cn3ccnc3)COC(c3ccc(-c4ccccc4)s3)=N2)cc1` (configuration not stated), for which the MIC is above 64 µg/mL.
Regarding `Fc1ccc(-c2ccc(C3=NC(Cn4ccnc4)(c4ccc(F)cc4)CO3)s2)cc1` (configuration not stated), the MIC was 8 µg/mL (≈ 19 µM).
As for `CC(C)c1ccccc1-c1ccc(C2=NC(Cn3ccnc3)(c3ccc(F)cc3)CO2)s1` (configuration not stated), the MIC is above 64 µg/mL.
The same measure, in the same setting: for `Fc1ccc(C2(Cn3ccnc3)COC(c3ccc(-c4ccc(C(F)(F)F)cc4)s3)=N2)cc1` (configuration not stated) the value was above 64 µg/mL.
On the same count and under the same terms, for `Fc1ccc(C2(Cn3ccnc3)COC(c3ccc(-c4ccc(Cl)cc4)s3)=N2)cc1` (configuration not stated) the value was 8 µg/mL (≈ 18.3 µM); for `COc1cccc(-c2ccc(C3=NC(Cn4ccnc4)(c4ccc(F)cc4)CO3)s2)c1` (configuration not stated), above 64 µg/mL; for `Fc1ccc(C2(Cn3ccnc3)COC(c3ccc(-c4ccccc4Cl)s3)=N2)cc1` (configuration not stated), 16 µg/mL (≈ 36.5 µM).
On to `Cc1cccc(-c2ccc(C3=NC(Cn4ccnc4)(c4ccc(F)cc4)CO3)s2)c1` (configuration not stated), for which the MIC came out at 32 µg/mL (≈ 76.6 µM).
On the same count and under the same terms, to `N#Cc1cccc(-c2ccc(C3=NC(Cn4ccnc4)(c4ccc(F)cc4)CO3)s2)c1` (configuration not stated) belongs 16 µg/mL (≈ 37.3 µM).

The test system of the next assay is Nakaseomyces glabratus. The experiment in a line: Antifungal activity against Candida glabrata clinical isolate assessed as fungal growth inhibition by NCCLS protocol based method. Type of assay: functional.
Settings: not given
In the case of `FC(F)(F)c1ccc(C2(Cn3ccnc3)COC(c3ccc(-c4ccccc4)s3)=N2)cc1` (configuration not stated), the MIC is above 64 µg/mL.
Same read-out and setting: to `Fc1ccc(-c2ccc(C3=NC(Cn4ccnc4)(c4ccc(F)cc4)CO3)s2)cc1` (configuration not stated) belongs above 64 µg/mL.
Same read-out and setting: for `CC(C)c1ccccc1-c1ccc(C2=NC(Cn3ccnc3)(c3ccc(F)cc3)CO2)s1` (configuration not stated) the value was above 64 µg/mL.
`Fc1ccc(C2(Cn3ccnc3)COC(c3ccc(-c4ccc(C(F)(F)F)cc4)s3)=N2)cc1` (configuration not stated): the MIC is above 64 µg/mL.
Same read-out and setting: to `Fc1ccc(C2(Cn3ccnc3)COC(c3ccc(-c4ccc(Cl)cc4)s3)=N2)cc1` (configuration not stated) belongs above 64 µg/mL; to `COc1cccc(-c2ccc(C3=NC(Cn4ccnc4)(c4ccc(F)cc4)CO3)s2)c1` (configuration not stated), above 64 µg/mL; to `Fc1ccc(C2(Cn3ccnc3)COC(c3ccc(-c4ccccc4Cl)s3)=N2)cc1` (configuration not stated), above 64 µg/mL.
The same measure, in the same setting: for `Cc1cccc(-c2ccc(C3=NC(Cn4ccnc4)(c4ccc(F)cc4)CO3)s2)c1` (configuration not stated) the value was above 64 µg/mL.
Still for that read-out and setting: for `N#Cc1cccc(-c2ccc(C3=NC(Cn4ccnc4)(c4ccc(F)cc4)CO3)s2)c1` (configuration not stated) the value was above 64 µg/mL.

As a reminder, the MIC is the least concentration at which growth counts as inhibited.
